Laboratory results from patent US20240408169A1 (priority 2023, published 2024).
Where two headings read alike, the source gives them in different places. *1 amine or outer side, *2 acyl side, *3 side chain or, on linkers, in order; H or OH if unused. Where a SMILES comes first, the peptide text is derived from it. Bridges are numbered along the chain shown (N, C = ends). [ ]: non-standard residue; d: D form. The star is where a group is joined. X7 = CC(C)C(=O)N1[C@H]2CC[C@@H]1C=C(c1ccc(F)cc1C[C@@H](C(=O)[*:2])N(C)[*:1])C2; X128 = CC(C)C(=O)N1C2C=C(c3ccc(F)cc3C[C@@H](C(=O)[*:2])N(C)[*:1])CC1COC2; NMeAla(5-Cl-2-cPrO-3-pyridyl) = CN[C@@H](Cc1cc(Cl)cnc1OC1CC1)C(=O)O; X137 = CN([C@@H](Cc1cc(F)ccc1-c1cnn(S(C)(=O)=O)c1)C(=O)[*:2])[*:1]; X172 = CC(=O)N1CC=C(c2ccc(F)cc2C[C@@H](C(=O)[*:2])N(C)[*:1])CC1; X147 = CCSc1ccc(-c2ccc(Cl)cc2C[C@@H](C(=O)[*:2])N(C)[*:1])cn1; X68 = CN([C@@H](Cc1cc(Cl)ccc1-c1cnn(C2CC2)c1)C(=O)[*:2])[*:1]; X196 = CN([C@@H](Cc1cc(F)ccc1-c1cnn2ccncc12)C(=O)[*:2])[*:1]; NMehhhLys(Me) = CN([C@@H](CCCCCCCN(C)[*:3])C(=O)[*:2])[*:1]; X159 = CN([C@@H](Cc1cc(Cl)cnc1Oc1cnn(C)c1)C(=O)[*:2])[*:1]; X44 = Cc1nnc(-c2ccc(Cl)cc2C[C@@H](C(=O)[*:2])N(C)[*:1])o1; X204 = CN([C@@H](Cc1cc(F)ccc1-c1ccnnc1)C(=O)[*:2])[*:1]; NMe(hhhLys) = CN([C@@H](CCCCCCCN[*:3])C(=O)[*:2])[*:1]; X156 = CN([C@@H](Cc1cc(Cl)cc2ccccc12)C(=O)[*:2])[*:1]; Cyclobutanecarbonyl(1-CF3) = O=C(C1(C(F)(F)F)CCC1)*; cBuCO(3,3-F2-1-CF3) = O=C(C1(C(F)(F)F)CC(F)(F)C1)*; X161 = Cc1ccc(F)cc1C[C@@H](C(=O)[*:2])N(C)[*:1]; Pro(trans-4-F) = O=C(O)[C@@H]1C[C@@H](F)CN1; Pivaloyl(3,3,3-F3) = CC(C)(C(=O)*)C(F)(F)F; Gly(cPr) = N[C@H](C(=O)O)C1CC1

Tests used:
[1] = test system: NCI-H1048 cells; assay: MTT proliferation assay, NCI-H1048; type: cell-based; conditions: 5 days compound exposure, 1:3 serial dilution starting at 10 μM;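 further: Dose-response in 96-well plates over 8 or 10 concentration points, with exposure spanning 3-4 cell doublings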
[2] = target: T1, CyclinA2/CDK2 (Homo sapiens, UniProt P20248); assay: Fluorescence Polarization (FP) competitive binding assay, Cyclin A2/Cdk2;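 further: plates equilibrated two hours at room temperature before polarization reading, IC50 fitted from eight-concentration compound titration curves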
T1 construct: purchased CRELUX Protein Services

[3] = test system: OVCAR3 cells; assay: MTT proliferation assay, OVCAR3; type: cell-based; conditions: 5 days compound exposure, 1:3 serial dilution starting at 10 μM;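 further: compound given as an 8- or 10-point series, one day after plating, with exposure covering roughly 3-4 cell doublings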
[4] = target: T2, CyclinB1/CDK1 (Homo sapiens, UniProt P14635); assay: Fluorescence Polarization (FP) competitive binding assay, Cyclin B1/Cdk1;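 further: fluorescence polarization read after equilibration at room temperature, with IC50 taken from serially diluted dose-response curves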
T2 construct: purchased Eurofins, discovery 14-450

[5] = target: T3, CyclinE1/CDK2 (Homo sapiens, UniProt P24864); assay: Fluorescence Polarization (FP) competitive binding assay, Cyclin E1/Cdk2;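 further: readings taken after two-hour equilibration at room temperature in HEPES buffer with NaCl, DTT, NP-40 and BSA, IC50 fitted from eight-concentration serial dilution series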
T3 construct: purchased Eurofins, discovery 14-475

[6] = 8 nM Cyclin A2/Cdk2, 2 nM FAM probe; average of 2-3 independent experiments; read-out: Cyclin A FP IC50
[7] = 10 nM Cyclin B1/Cdk1, 2 nM FAM probe; average of 2-3 independent experiments; read-out: Cyclin B FP IC50
[8] = 10 nM Cyclin E1/Cdk2, 2 nM FAM probe, average of 2-3 independent experiments, read-out: Cyclin E FP IC50

Row | SMILES | GI50 [1] [nM] | IC50 [2, 6] [nM] | GI50 [3] [nM] | IC50 [4, 7] [nM] | IC50 [5, 8] [nM] | IC50 ([2]; read-out: Cyclin A FP IC50; 8 nM Cyclin A2/Cdk2, 2 nM FAM probe; average of 2-3 independent experiments) [nM] | IC50 ([4]; read-out: Cyclin B FP IC50; 10 nM Cyclin B1/Cdk1, 2 nM FAM probe; average of 2-3 independent experiments) [nM] | IC50 [5] [nM]
1 | CC(C)C[C@@H]1NC(=O)[C@@H](N(C)C(=O)[C@@H](NC(=O)[C@@H]2C[C@@H](F)CN2C(=O)C2(C(F)(F)F)CC(F)(F)C2)C2CC2)CCCCCCCN(C)C(=O)[C@H](Cc2cc(Cl)cnc2Oc2cnn(C)c2)N(C)C1=O [Example 323] ({cBuCO(3,3-F2-1-CF3)}-[Pro(trans-4-F)][Gly(cPr)][NMehhhLys(Me)]L[X159]; lactam 3-C) | 10 | 30 | 10 | 20 | 240 | – | – | –
2 | Cc1ccc(F)cc1C[C@H]1C(=O)NCCCCCCC[C@H](N(C)C(=O)[C@@H](NC(=O)[C@@H]2C[C@@H](F)CN2C(=O)C2(C(F)(F)F)CC(F)(F)C2)C2CC2)C(=O)N[C@@H](CC(C)C)C(=O)N1C [Example 264] ({cBuCO(3,3-F2-1-CF3)}-[Pro(trans-4-F)][Gly(cPr)][NMe(hhhLys)]L[X161]; lactam 3-C) | 40 | 90 | 30 | 20 | 290 | – | – | –
3 | CC(=O)N1[C@H]2CC[C@@H]1C=C(c1ccc(F)cc1C[C@H]1C(=O)N(C)CCCCCCC[C@H](N(C)C(=O)[C@@H](NC(=O)[C@@H]3C[C@@H](F)CN3C(=O)C3(C(F)(F)F)CC(F)(F)C3)C3CC3)C(=O)N[C@@H](CC(C)C)C(=O)N1C)C2 [Example 58] | 10 | – | 10 | – | – | 20 | 20 | 620
4 | CC(C)C[C@@H]1NC(=O)[C@@H](N(C)C(=O)[C@@H](NC(=O)[C@@H]2C[C@@H](F)CN2C(=O)C2(C(F)(F)F)CC(F)(F)C2)C2CC2)CCCCCCCNC(=O)[C@H](Cc2cc(Cl)ccc2-c2cnn(C3CC3)c2)N(C)C1=O [Example 67] ({cBuCO(3,3-F2-1-CF3)}-[Pro(trans-4-F)][Gly(cPr)][NMe(hhhLys)]L[X68]; lactam 3-C) | 10 | 20 | 10 | 20 | 500 | – | – | –
5 | CC(C)C[C@@H]1NC(=O)[C@@H](N(C)C(=O)[C@@H](NC(=O)[C@@H]2C[C@@H](F)CN2C(=O)C2(C(F)(F)F)CCC2)C2CC2)CCCCCCCNC(=O)[C@H](Cc2cc(Cl)cnc2OC2CC2)N(C)C1=O [Example 108] ({Cyclobutanecarbonyl(1-CF3)}-[Pro(trans-4-F)][Gly(cPr)][NMe(hhhLys)]L[NMeAla(5-Cl-2-cPrO-3-pyridyl)]; lactam 3-C) | 20 | 50 | 30 | 20 | 180 | – | – | –
6 | CC(C)C[C@@H]1NC(=O)[C@@H](N(C)C(=O)[C@@H](NC(=O)[C@@H]2C[C@@H](F)CN2C(=O)C2(C(F)(F)F)CC(F)(F)C2)C2CC2)CCCCCCCN(C)C(=O)[C@H](Cc2cc(F)ccc2C2=CC3COCC(C2)N3C(=O)C(C)C)N(C)C1=O (stereo partly drawn) [Example 151] ({cBuCO(3,3-F2-1-CF3)}-[Pro(trans-4-F)][Gly(cPr)][NMehhhLys(Me)]L[X128]; lactam 3-C) | 10 | 20 | 10 | 20 | 220 | – | – | –
7 | Cc1nnc(-c2ccc(Cl)cc2C[C@H]2C(=O)N(C)CCCCCCC[C@H](N(C)C(=O)[C@@H](NC(=O)[C@@H]3C[C@@H](F)CN3C(=O)C3(C(F)(F)F)CC(F)(F)C3)C3CC3)C(=O)N[C@@H](CC(C)C)C(=O)N2C)o1 [Example 162] ({cBuCO(3,3-F2-1-CF3)}-[Pro(trans-4-F)][Gly(cPr)][NMehhhLys(Me)]L[X44]; lactam 3-C) | 10 | 20 | 10 | 20 | 220 | – | – | –
8 | CCSc1ccc(-c2ccc(Cl)cc2C[C@H]2C(=O)N(C)CCCCCCC[C@H](N(C)C(=O)[C@@H](NC(=O)[C@@H]3C[C@@H](F)CN3C(=O)C3(C(F)(F)F)CC(F)(F)C3)C3CC3)C(=O)N[C@@H](CC(C)C)C(=O)N2C)cn1 [Example 181] ({cBuCO(3,3-F2-1-CF3)}-[Pro(trans-4-F)][Gly(cPr)][NMehhhLys(Me)]L[X147]; lactam 3-C) | 240 | 40 | 420 | 20 | 1580 | – | – | –
9 | CC(=O)N1CC=C(c2ccc(F)cc2C[C@H]2C(=O)NCCCCCCC[C@H](N(C)C(=O)[C@@H](NC(=O)[C@@H]3C[C@@H](F)CN3C(=O)C3(C(F)(F)F)CC(F)(F)C3)C3CC3)C(=O)N[C@@H](CC(C)C)C(=O)N2C)CC1 [Example 217] ({cBuCO(3,3-F2-1-CF3)}-[Pro(trans-4-F)][Gly(cPr)][NMe(hhhLys)]L[X172]; lactam 3-C) | 10 | 30 | 20 | 20 | 760 | – | – | –
10 | CC(C)C[C@@H]1NC(=O)[C@@H](NC(=O)[C@@H](NC(=O)[C@@H]2C[C@@H](F)CN2C(=O)C2(C(F)(F)F)CC(F)(F)C2)C2CC2)CCCCCCCNC(=O)[C@H](Cc2cc(Cl)ccc2Cl)N(C)C1=O [Example 8] | 20 | 30 | 30 | 20 | 100 | – | – | –
11 | CC(C)C[C@@H]1NC(=O)[C@@H](N(C)C(=O)[C@H](C)NC(=O)[C@@H]2C[C@@H](F)CN2C(=O)C2(C(F)(F)F)CC(F)(F)C2)CC=CCCCCNC(=O)[C@H](Cc2cc(Cl)ccc2Cl)N(C)C1=O [Example 54] | 470 | 390 | 700 | 30 | 3390 | – | – | –
12 | CC(C)C[C@@H]1NC(=O)[C@@H](N(C)C(=O)[C@@H](NC(=O)[C@@H]2C[C@@H](F)CN2C(=O)C2(C(F)(F)F)CC(F)(F)C2)C2CC2)CC=CCCCCN(C)C(=O)[C@H](Cc2cc(F)cnc2OC2CC2)N(C)C1=O [Example 126] | 380 | 500 | 310 | 20 | 620 | – | – | –
13 | CC(C)C[C@@H]1NC(=O)[C@@H](N(C)C(=O)[C@@H](NC(=O)[C@@H]2C[C@@H](F)CN2C(=O)C2(C(F)(F)F)CC(F)(F)C2)C2CC2)CC=CCCCCN(C)C(=O)[C@H](Cc2cc(F)ccc2-c2cnn(C3CCOCC3)c2)N(C)C1=O [Example 84] | 20 | 50 | 10 | 20 | 290 | – | – | –
14 | CC(C)C[C@@H]1NC(=O)[C@@H](N(C)C(=O)[C@@H](NC(=O)[C@@H]2C[C@@H](F)CN2C(=O)C2(C(F)(F)F)CC(F)(F)C2)C2CC2)CCCCCCCN(C)C(=O)[C@H](Cc2cc(Cl)cc3ccccc23)N(C)C1=O [Example 425] ({cBuCO(3,3-F2-1-CF3)}-[Pro(trans-4-F)][Gly(cPr)][NMehhhLys(Me)]L[X156]; lactam 3-C) | 160 | 150 | 240 | 20 | 210 | – | – | –
15 | CC(C)C[C@@H]1NC(=O)[C@@H](N(C)C(=O)[C@@H](NC(=O)[C@@H]2C[C@@H](F)CN2C(=O)C2(C(F)(F)F)CC(F)(F)C2)C2CC2)CCCCCCCN(C)C(=O)[C@H](Cc2cc(F)ccc2-c2cnn3ccncc23)N(C)C1=O [Example 310] ({cBuCO(3,3-F2-1-CF3)}-[Pro(trans-4-F)][Gly(cPr)][NMehhhLys(Me)]L[X196]; lactam 3-C) | 10 | 80 | 10 | 20 | 990 | – | – | –
16 | CC(C)C[C@@H]1NC(=O)[C@@H](N(C)C(=O)[C@@H](NC(=O)[C@@H]2C[C@@H](F)CN2C(=O)C2(C(F)(F)F)CCC2)C2CC2)CC=CCCCCNC(=O)[C@H](Cc2cc(Cl)cnc2OC2CC2)N(C)C1=O (single isomer, unassigned) [Example 107-P2] | 190 | 110 | 320 | 20 | 180 | – | – | –
17 | CC(C)C[C@@H]1NC(=O)[C@@H](N(C)C(=O)[C@@H](NC(=O)[C@@H]2C[C@@H](F)CN2C(=O)C2(C(F)(F)F)CC(F)(F)C2)C2CC2)CCCCCCCNC(=O)[C@H](Cc2cc(F)ccc2-c2ccnnc2)N(C)C1=O [Example 290] ({cBuCO(3,3-F2-1-CF3)}-[Pro(trans-4-F)][Gly(cPr)][NMe(hhhLys)]L[X204]; lactam 3-C) | 80 | 120 | 150 | 20 | 1790 | – | – | –
18 | CC(C)C[C@@H]1NC(=O)[C@@H](N(C)C(=O)[C@@H](NC(=O)[C@@H]2C[C@@H](F)CN2C(=O)C2(C(F)(F)F)CC(F)(F)C2)C2CC2)CCCCCCCNC(=O)[C@H](Cc2cc(F)ccc2C2=C[C@H]3CC[C@@H](C2)N3C(=O)C(C)C)N(C)C1=O [Example 316] ({cBuCO(3,3-F2-1-CF3)}-[Pro(trans-4-F)][Gly(cPr)][NMe(hhhLys)]L[X7]; lactam 3-C) | 10 | 20 | 10 | 20 | 290 | – | – | –
19 | CC(C)C[C@@H]1NC(=O)[C@@H](N(C)C(=O)[C@@H](NC(=O)[C@@H]2C[C@@H](F)CN2C(=O)C(C)(C)C(F)(F)F)C2CC2)CCCCCCCN(C)C(=O)[C@H](Cc2cc(F)ccc2-c2cnn(S(C)(=O)=O)c2)N(C)C1=O [Example 304] ({Pivaloyl(3,3,3-F3)}-[Pro(trans-4-F)][Gly(cPr)][NMehhhLys(Me)]L[X137]; lactam 3-C) | 10 | 40 | 10 | 20 | 190 | – | – | –
20 | Cc1nnc(-c2ccc(Cl)cc2C[C@H]2C(=O)NCCCCC=CC[C@H](N(C)C(=O)[C@@H](NC(=O)[C@@H]3C[C@@H](F)CN3C(=O)C3(C(F)(F)F)CCC3)C3CC3)C(=O)N[C@@H](CC(C)C)C(=O)N2C)o1 (single isomer, unassigned) [Example 117-P2] | 90 | 60 | 60 | 20 | 160 | – | – | –
